Assay results from patent US20220087979A1, “TREATMENT OF MALIGNANCIES” (Board of Trustees of Michigan State University, priority 2017, published 2022).

Assays:
[1] = system: LC3B-II; test: LC3B immunoblot in U87-MG cells; assay type: cell-based; conditions: for amount of LC3B-II: TCH-165 10 μM 16 h or BafA1 100 nM 4 h, alone (FIG. 2A)
Description: (§1) U87-MG cells at 70% confluency were treated with test compounds at the reported concentration and time. Cells were washed with warm PBS and trypsinized with 0.25% Trypsin-EDTA. Samples were collected in chilled PBS, pelleted and washed twice with chilled PBS. Cells were then lysed with celLytic buffer supplemented with 1% sigma fast inhibitor cocktail. Total protein was quantified by BCA reagent, and 20 μg resolved on a 12% (LC3B) or 30 μg on a 4-12% (p62, ATG5, beclin1) Tris-glycine SDS-PAGE, and immunoblotted with antigen specific antibody (1:1000), and goat anti-rabbit HRP (1:1000). Blots were developed with ECL western reagent and imaged with x-ray film.
To determine whether TCH-165 affects LC3B-II formation, glioblastoma astrocytoma (U87-MG) cells were treated with TCH-165 and the level of LC3B-II monitored by immunoblot. U87-MG cells were incubated with different concentrations of TCH-165 and immunoblotted with LC3B-specific antibody. U87-MG cells were also treated with a specific amount of TCH-165 (10 μM) and evaluated at 0, 6, 12, and 24 hours. Cell lysates were immunoblotted with LC3B-specific antibody and anti-GAPDH as a loading control.
U87-MG cells were treated with either vehicle (DMSO) or TCH-165 (10 μM) for 16 h, followed by treatment with bafilomycin A1 (100 nM) for 4 h. Conversion of LC3BI to LC3BII was detected by immunoblot with LC3B-specific antibody.

[2] = system: HS BD; test: Tumor cell growth inhibition, HS BD; assay type: cell-based; conditions: Canis lupus familiaris; Canine Histiocytic Sarcoma cell line HS BD
Description: (§2) The pIC50 values shown in Table 1, herein, was determined as the negative log of the amount of compound required to inhibit tumor cell growth by 50% (the IC50). […] A pIC50 of 4 indicates an IC50 of 10-4.

[3] = system: cOS Brandie mets; test: Tumor cell growth inhibition, cOS Brandie mets; assay type: cell-based; conditions: Canis lupus familiaris; Canine Osteosarcoma cell line cOS Brandie mets
Description: as §2

[4] = system: Normal FB2; test: Cell growth inhibition, Normal FB2; assay type: cell-based; conditions: Canis lupus familiaris; Canine Normal Firbroblasts Normal FB2
Description: as §2

[5] = system: Normal FB1; test: Cell growth inhibition, Normal FB1; assay type: cell-based; conditions: Canis lupus familiaris; Canine Normal Firbroblasts Normal FB1
Description: as §2

[6] = system: Fel SCC1; test: Tumor cell growth inhibition, Fel SCC1; assay type: cell-based; conditions: Felis catus; Feline Squamous Cell Carcinoma cell line Fel SCC1
Description: as §2

[7] = system: cOS Ginger; test: Tumor cell growth inhibition, cOS Ginger; assay type: cell-based; conditions: Canis lupus familiaris; Canine Osteosarcoma cell line cOS Ginger
Description: as §2

[8] = system: Fel SCC3; test: Tumor cell growth inhibition, Fel SCC3; assay type: cell-based; conditions: Felis catus, SCC-3; Feline Squamous Cell Carcinoma cell line Fel SCC3
Description: as §2

[9] = system: cOS Abrams; test: Tumor cell growth inhibition, cOS Abrams; assay type: cell-based; conditions: Canis lupus familiaris; Canine Osteosarcoma cell line cOS Abrams
Description: as §2

[10] = system: cOS D17; test: Tumor cell growth inhibition, cOS D17; assay type: cell-based; conditions: Canis lupus familiaris; Canine Osteosarcoma cell line cOS D17
Description: as §2

[11] = system: cOS Brandie primary; test: Tumor cell growth inhibition, cOS Brandie primary; assay type: cell-based; conditions: Canis lupus familiaris; Canine Osteosarcoma cell line cOS Brandie primary
Description: as §2

[12] = system: HS DH82; test: Tumor cell growth inhibition, HS DH82; assay type: cell-based; conditions: Canis lupus familiaris; Canine Histiocytic Sarcoma cell line HS DH82
Description: as §2

[13] = system: hOS Saos2; test: Tumor cell growth inhibition, hOS Saos2; assay type: cell-based; conditions: SAOS-2; Human Osteosarcoma cell line hOS Saos2
Description: as §2

[14] = system: cOS Blaz; test: Tumor cell growth inhibition, cOS Blaz; assay type: cell-based; conditions: Canis lupus familiaris; Canine Osteosarcoma cell line cOS Blaz
Description: as §2

[15] = system: Fel SCC2; test: Tumor cell growth inhibition, Fel SCC2; assay type: cell-based; conditions: Felis catus, SCC-2; Feline Squamous Cell Carcinoma cell line Fel SCC2
Description: as §2

[16] = system: cOS Gracie; test: Tumor cell growth inhibition, cOS Gracie; assay type: cell-based; conditions: Canis lupus familiaris; Canine Osteosarcoma cell line cOS Gracie
Description: as §2

[17] = system: hOS MG63; test: Tumor cell growth inhibition, hOS MG63; assay type: cell-based; conditions: MG-63; Human Osteosarcoma cell line hOS MG63
Description: as §2

[18] = system: HS PJ; test: Tumor cell growth inhibition, HS PJ; assay type: cell-based; conditions: Canis lupus familiaris; Canine Histiocytic Sarcoma cell line HS PJ
Description: as §2

[19] = system: hOS U2OS; test: Tumor cell growth inhibition, hOS U2OS; assay type: cell-based; conditions: Human Osteosarcoma cell line hOS U2OS
Description: as §2

[20] = system: Hela cells; test: Tumor cell growth inhibition, Hela cells; assay type: cell-based; conditions: Human Cervical Adenocarcinoma
Description: as §2

[21] = system: U87-MG cells; test: Cell viability assay (MTS assay); assay type: cell-based; conditions: 72 h
Description: FIG. 5B graphically illustrates the viability of glioblastoma cells treated with different concentrations of TCH-165 or TCH-023 for 72 h. MTS reagent was added to quantify cell viability and the absorbance measured at 490 nm 2 h later. Absorbance readings are expressed as percentage of vehicle control for three independent experiments and data are graphed as mean±SD.
FIG. 5D is a bar graph showing the viability of glioblastoma cells treated with different concentrations of TCH-165 or temozolomide for 72 h. MTS reagent was then added and absorbance measured at 490 nm 2 h later. Absorbance readings are expressed as percentage of vehicle control for three independent experiments and data are graphed as mean±SD.
U87-MG cells were seeded in a clear 96-well plate at a density of 1.0×10^4 cells per well. Cells were treated with different concentrations of TCH-165 or temozolomide for 72 h. MTS solution (20 μL) was then added and incubated under cell culture conditions for 2 h. Absorbance was read at 490 nm and expressed as a percentage of vehicle control.

[22] = system: MCT C2; test: Tumor cell growth inhibition, MCT C2; assay type: cell-based; conditions: Canis lupus familiaris; Canine Mastocytoma cell line MCT C2
Description: as §2

[23] = system: autolysosome formation; test: Co-localization of LC3B with LAMP1 in U87MG cells; assay type: cell-based; conditions: 10 μM, 24 h
Description: (§3) U87-MG cells were plated in complete medium at 2.5×10^5 cells/well of a four-chamber glass slide overnight. Fresh medium (500 μL) containing the test compound was added and allowed to incubate for the desire time under cell culture conditions. Cells were washed with chilled immunofluorescent (IF) wash buffer (1×PBS, pH 8.0) and fixed with methanol at −20° C. for 10 minutes. Cells were then washed 2× with IF wash buffer and incubated in blocking buffer (1×PBS, 5% normal goat serum, 0.3% Triton X-100 pH 8.0) for 1 h at RT. Blocking buffer was replaced with primary antibody diluted in dilution buffer (1×PBS, 1% BSA, 0.3% Triton X-100 pH 8.0) overnight (1:200) at 40° C. Primary antibody was washed off 3× and incubated in anti-rabbit Alexa Fluor 488 (1:500) and/or anti-mouse Alexa Fluor 594 for 1 h in the dark, at RT. Secondary antibodies were then washed off (3×) and nuclei stained with Hoechst (4 μg/mL) at RT, for 20 minutes. DNA dye was rinsed off and slides mounted in Prolong Gold and allowed to cure overnight at RT, in the dark. Slides were sealed with nail polish, and LC3B, LAMP1 and p62 punctae detected with a 60× Plan Apo oil objective on a Nikon C2+ or Nikon A1 confocal laser microscope.
Co-localization of LC3B with LAMP1 was therefore examined to distinguish inhibition of autolysosome formation from autolysosome de-acidification. […]

[24] = system: HEK293; test: Cell growth inhibition, HEK293; assay type: cell-based; conditions: Human Embryonic Kidney HEK293
Description: as §2

[25] = system: lysosome associated membrane protein (LAMP)-1; test: Confocal immunofluorescence of LAMP1 in U87-MG cells; assay type: cell-based; conditions: 10 μM, 24 h, FIG. 1D
Description: as §3

[26] = system: autolysosome formation; test: Tandem RFP-GFP-LC3B autophagy sensor in U87-MG cells; assay type: cell-based; conditions: 10 μM, 24 h, FIG. 3A
Description: By combining an acid insensitive red fluorescent protein (RFP) with an acid sensitive green fluorescent protein (GFP), the conversion of autophagosomes (with neutral pH) to an autolysosome (with acidic pH) can be visualized by monitoring the specific loss of the GFP fluorescence upon acidification of the autophagosome following lysosomal fusion.
U87-MG cells were transduced with 30 particles per cell of tandem-RFP-GFP-LC3B and cultured for 24 h. Cells were then incubated with either vehicle or TCH-165 (10 μM) for an additional 24 h. Cells were fixed with 4% formaldehyde, counter stained with Hoechts DNA dye, and imaged on a Nikon C2 confocal microscope using standard filter sets for blue dye, GFP and RFP.

[27] = system: p62; test: p62 immunoblot in U87-MG cells; assay type: cell-based; conditions: concentration (FIG. 2C) and time (10 μM; 0-24 h, FIG. 2D) dependent
Description: as §1

[28] = system: p62; test: Confocal immunofluorescence of p62 in U87-MG cells; assay type: cell-based; conditions: 10 μM, 24 hr, immunofluorescence imaging
Description: All statistical analyses were performed on densitometry data (imageJ) of five individual experiments. Data are graphed as mean±SD and were analyzed by One-Way ANOVA with Bonferroni's multiple comparison test or by student t-test for 2 samples (ns=not significant, *p<0.05, *p<0.01, **p<0.001).
U87-MG cells were plated in complete medium at 2.5×10^5 cells/well of a four-chamber glass slide overnight. Fresh medium (500 μL) containing the test compound was added and allowed to incubate for the desire time under cell culture conditions. Cells were washed with chilled immunofluorescent (IF) wash buffer (1×PBS, pH 8.0) and fixed with methanol at −20° C. for 10 minutes. Cells were then washed 2× with IF wash buffer and incubated in blocking buffer (1×PBS, 5% normal goat serum, 0.3% Triton X-100 pH 8.0) for 1 h at RT. Blocking buffer was replaced with primary antibody diluted in dilution buffer (1×PBS, 1% BSA, 0.3% Triton X-100 pH 8.0) overnight (1:200) at 40° C. Primary antibody was washed off 3× and incubated in anti-rabbit Alexa Fluor 488 (1:500) and/or anti-mouse Alexa Fluor 594 for 1 h in the dark, at RT. Secondary antibodies were then washed off (3×) and nuclei stained with Hoechst (4 μg/mL) at RT, for 20 minutes. […] Slides were sealed with nail polish, and LC3B, LAMP1 and p62 punctae detected with a 60× Plan Apo oil objective on a Nikon C2+ or Nikon A1 confocal laser microscope.

[29] = system: LC3B; test: Confocal immunofluorescence of LC3B in U87-MG cells; assay type: cell-based
Description: as §3
LC3B polypeptides were stained with LC3B antibody/Alexa Fluor 488 secondary (green) and the cellular nuclei were stained with Hoechst DNA dye (blue).

[30] = dog, in vivo
[31] = system: lysosomes of HEK293T cells; test: Lysosome de-acidification live imaging (LysoSensor yellow/blue dextran, LAMP1-RFP); assay type: cell-based, Human; conditions: cells expressing LAMP1-RFP; TCH-165 10 μM, chloroquine 100 μM
Description: HEK293T cells cultured on cover glass slides were transduced with 30 particles per cell of LAMP1-RFP and cultured for 24 h. Cells were then incubated with either vehicle, TCH-165 (10 μM) or chloroquine (100 μM) for 12 h. LysoSensor Yellow/Blue dextran, 10,000 MW, Anionic (1 mg/mL) was then added for a further 12 h and cells imaged with an upright 60× Plan Apo oil objective on a Nikon A1 confocal microscope using standard filter sets for RFP, blue and yellow dyes.
Lysosensor yellow/blue dextran is a pH sensitive dye that is […] (neutral pH). Lysosomes were distinguished from other acidic organelles by imaging with a combination of lysosensor yellow/blue dextran and LAMP1-RFP.

[32] = system: U87-MG cells; test: Cytotoxicity assay (LDH assay); assay type: cell-based; conditions: Homo sapiens, U-87 MG, LDH-based assay, 72 h, FIG. 5E-5F
Description: U87-MG cells were seeded in a clear 96-well plate at a density of 1.0×10^4 cells per well. Cells were treated with different concentrations of TCH-165 or temozolomide for 72 h. Culture medium was then assayed for lactate dehydrogenase (LDH) activity according to the manufacturer's protocol. Briefly, cells for maximum toxicity were treated with 10 μL of lysis buffer 45 minutes prior to enzyme assay. Culture media (50 μL) were then transferred to new 96 well plate and 50 μL of substrate mix added. The reaction mixtures were incubated at RT protected from light for 30 minutes. Stop solution (50 μL) was then added and absorbance read at 490 nm. Toxicity was expressed as a fraction of sample treated with lysis buffer.

[33] = system: beclin-1, ATG5 and ATG12; test: Immunoblot of autophagic regulators in U87-MG cells; assay type: cell-based; conditions: 24 h, FIG. 4
Description: as §1

Structure (SMILES): CO/C1=C\C(C)=C\[C@@H](C)[C@@H](O)[C@@H](C)C/C(C)=C/C=C/[C@H](OC)[C@@H]([C@@H](C)[C@@H](O)[C@H](C)[C@@]2(O)C[C@@H](O)[C@H](C)[C@@H](C(C)C)O2)OC1=O [BafA1, bafilomycin A1, reference compound]
- amount of LC3B-II ([1]; U87-MG): significant increase

Structure (SMILES): CCOC(=O)[C@]1(c2ccccc2)N=C(c2ccccc2)N(Cc2ccccc2)[C@@H]1c1ccccc1 [TCH-013]
- IC50 [2]: 5.01 µM
- IC50 [3]: 15.8 µM
- IC50 [4]: 39.8 µM
- IC50 [5]: 200 µM
- IC50 [6]: 10 µM
- IC50 [7]: 3.16 µM
- IC50 [8]: 50.1 µM
- IC50 [9]: 15.8 µM
- IC50 [10]: 20 µM
- IC50 [11]: 10 µM
- IC50 [12]: 10 µM
- IC50 [13]: 5.01 µM
- IC50 [14]: 12.6 µM
- IC50 [15]: 200 µM
- IC50 [16]: 6.31 µM
- IC50 [17]: 20 µM
- IC50 [18]: 3.98 µM
- IC50 [19]: 15.8 µM
- IC50 [20]: 10 µM

Structure (SMILES): CCOC(=O)[C@]1(c2ccccc2)N=C(c2ccccc2)N[C@@H]1c1ccccc1 [TCH-023, reference compound]
- LC3B-II accumulation ([1]; U87-MG, structurally related control): no effect
- inhibition of autophagy (LC3B immunoblot) ([1]; glioblastoma cells, 10 μM, 24 h, FIG. 5C): did not inhibit autophagy
- induction of cell death ([21]; U87-MG): did not induce any cell death

Structure (SMILES): CCOC(=O)[C@]1(c2ccccc2)N=C(c2ccc(OC)cc2)N(Cc2ccccc2)[C@@H]1c1ccc(NCc2ccccc2)cc1 [TCH-165]
- IC50 [2]: 6.31 µM
- LC3B-II levels versus TCH-165 alone ([1]; U87-MG, TCH-165 10 μM 16 h followed by BafA1 100 nM 4 h): did not further increase
- amount of LC3B-II ([1]; U87-MG): significant increase
- LC3B-II levels ([1]; U87-MG, different concentrations, 10 μM at 0, 6, 12, 24 h (FIG. 1A, 1B)): increases LC3B-II levels
- IC50 [3]: 3.98 µM
- IC50 [4]: 20 µM
- IC50 [5]: 200 µM
- IC50 [22]: 100 µM
- IC50 [6]: 2 µM
- Co-localization of LC3B and LAMP1 [23]: not observed
- IC50 [7]: 7.94 µM
- IC50 [8]: 200 µM
- IC50 [9]: 12.6 µM
- IC50 [10]: 6.31 µM
- IC50 [24]: 2 µM
- IC50 [11]: 3.16 µM
- IC50 [12]: 2 µM
- number of lysosomes (LAMP1 staining) [25]: increased numbers of lysosomes
- GFP and RFP fluorescence of vacuoles in RFP-GFP-LC3B cells [26]: retained both GFP and RFP positive vacuoles
- p62 level [27]: increase in p62
- p62 punctae [28]: increase in p62 punctae
- IC50 [13]: 3.16 µM
- number of LC3B punctate ([29]; 10 μM, 16 hours, FIG. 1C): significant increase
- number of autophagic vacuoles ([29]; torin1 100 nM 4 h followed by TCH-165 10 μM 16 h, FIG. 2B): significantly increased
- IC50 [14]: 6.31 µM
- tolerance / signs of toxicity [30]: without showing any clinical or biochemical signs of toxicity
- lysosensor yellow/blue dextran fluorescence of lysosomes [31]: mainly had red/blue vacuoles
- IC50 [15]: 25.1 µM
- GI50 [32]: 7 µM
- IC50 [16]: 2 µM
- effect on expression of beclin-1, ATG5 and ATG12 [33]: did not appear to have any significant effect
- IC50 [17]: 3.16 µM
- IC50 [18]: 3.16 µM
- IC50 [19]: 5.01 µM
- IC50 [20]: 7.94 µM
- GI50 ([21]; Homo sapiens, U-87 MG, U87-MG, MTS-based assay, FIG. 5B): 4.5 µM

Structure (SMILES): Cn1nnc2c(C(N)=O)ncn2c1=O [TMZ, temozolomide]
- U87-MG cells killed ([21]; 1 mM, FIG. 5D): 54%

Structure (SMILES): CCN(CC)CCCC(C)Nc1ccnc2cc(Cl)ccc12 (centres unmarked) [chloroquine, reference compound]
- lysosensor yellow/blue dextran fluorescence of lysosomes [31]: shifted the fluorescence to the yellow spectrum

Structure (SMILES): CCC(=O)N1CCN(c2ccc(-n3c(=O)ccc4cnc5ccc(-c6cnc7ccccc7c6)cc5c43)cc2C(F)(F)F)CC1 [torin1, reference compound]
- accumulation of autophagic vacuoles ([29]; torin1 100 nM alone, FIG. 2B): modest accumulation
